Test [1] has as its system patients who have experienced a clinically isolated syndrome (CIS). As to conditions: 20 mg daily s.c. injection; PCT/US2008/013146; cited from earlier work.
Another test deals with MS patients. As to conditions: 20 mg/day subcutaneous (s.c.) dose; cited from earlier work.
For test [2], the system named is patients who have experienced a clinically isolated syndrome (CIS). Conditions: three s.c. injections over a period of seven days with at least one day between every injection.
For test [3], the system named is subjects with Relapsing-Remitting Multiple Sclerosis (RRMS).
Experimental: The study is designed to select three days a week for injection. Three injections are administered for every seven days and there must be at least one day between each injection.
Eligible subjects are randomized in a 2:1 ratio (40 mg:placebo) and assigned to one of the following three treatment arms: • 1. […] Matching placebo three times weekly (450 subjects)
During the PC phase, subjects are evaluated at study sites for a total of 7 scheduled visits at months: −1 (screening), 0 (baseline), 1, 3, 6, 9, and 12 (End of PC phase).
During the study, the following assessments are performed (regardless of the treatment assignment) at the specified time points: • Vital signs are measured at each study visit. • A physical examination is performed at months −1 (screening), 0 (baseline) 6, 12 (end of PC phase) and every 6 months thereafter. In addition, a physical examination will be performed at the termination visit of the OL phase. • The following safety clinical laboratory tests are performed: • Complete blood count (CBC) with differential—at all scheduled visits in the PC phase, and every 12 months thereafter. In addition this test will be performed at the termination visit of the OL phase. • Serum chemistry (including electrolytes, creatinine, urea and liver enzymes) and urinalysis—at all scheduled visits in the PC phase, and every 12 months thereafter. In addition this test will be performed at the termination visit of the OL phase. • Serum β-hCG in women of child-bearing potential is performed at months −1 (screening), 0 (baseline), 12 (end of PC phase), and every 12 months thereafter. In addition this test will be performed at the termination visit of the OL phase. • ECG is performed at months −1 (screening), 0 (baseline), 12 (end of PC phase), and every 12 months thereafter. In addition an ECG will be performed at the termination visit of the OL phase. • Chest X-ray is performed at month −1 (screening) if not performed within 6 months prior to screening visit. • Adverse Events (AEs) are monitored throughout the study. • Concomitant Medications are monitored throughout the study. • Neurological evaluations, including Neurostatus [Functional Systems (FS), Expanded Disability Status Scale (EDSS), Ambulation Index (AI)] are performed at months −1 (screening), 0 (baseline), 3, 6, 9, 12 (end of PC phase) and every 6 months thereafter. In addition, a neurological examination are performed at the termination visit of the OL phase. • The general health status is assessed by the EuroQoL (EQ5D) questionnaire at months 0 (baseline) and 12 (end of PC phase). • Additional quality of life parameters are assessed by the WPAI (Work Productivity and Activities Impairment) Questionnaire at month 0 (baseline), 3, 6, 9 and 12 (end of PC phase). • All subjects undergo MRI scans at months 0 (13-7 days prior to baseline visit), 6 and 12 (end of PC phase). Following the results of the PC phase, the Sponsor may decide to perform an MRI scan at the termination visit of the OL phase. • Relapses are confirmed/monitored throughout the study.
Route and Dosage Form: • Glatiramer Acetate 40 mg in 1 ml for subcutaneous injection in a pre-filled syringe (PFS), administered three times a week. • Matching placebo injection (mannitol in 1 ml WFI) for subcutaneous injection in a pre-filled syringe (PFS). Outcome Measures: Primary Outcome Measure: • The total number of confirmed relapses during the 12 month PC phase.
The subject of another test is MS. As to conditions: controlled clinical trials; cited from earlier work.
Setting [4] is: 40 mg s.c. three times weekly compared with 20 mg s.c. GA daily administration.
Where [5] appears, read: 40 mg s.c. three times weekly vs placebo.

These results are taken from patent US9155776B2, “Low frequency glatiramer acetate therapy” (Yeda Research & Development Co., Ltd., priority 2009, dated 2015).

Like-named read-outs stand apart in the source and are kept apart here.

Regarding “L-glutamic acid polymer with L-alanine, L-lysine, L-tyrosine, acetate (salt) [GA]”, the “efficacy in treatment of patients who have experienced a clinically isolated syndrome (CIS)” value in test [1] is recorded as “has been shown to work”. In addition, in the test on MS patients, the “total number of enhancing lesions in MS patients as measured by MRI” value is recorded as “has been shown to reduce”. The “efficacy in treatment of patients who have experienced a clinically isolated syndrome (CIS)” value in test [2] is “expected to work”. In addition, the “reduction of subject population annualized relapse rate” value in test [3] (40 mg s.c. three times weekly compared to the placebo group, RRMS subjects) is reported as ≥ 30%. Besides, in test [3] (setting [4]), the “increasing the proportion of relapse-free subjects during the placebo-controlled phase” value is given as “at least as effective as 20 mg s.c. GA daily administration”; the “increasing the time to the first confirmed relapse during the placebo-controlled phase” value is on record as “at least as effective as 20 mg s.c. GA daily administration”; the “reducing the change from baseline to month 12 (end of placebo-controlled phase) in EDSS Score” value was “at least as effective as 20 mg s.c. GA daily administration”; the “reducing the cumulative number of enhancing lesions on T1-weighted images taken at months 6 and 12” value was “at least as effective as 20 mg s.c. GA daily administration”. In addition, in test [3] (setting [4]), the “reducing the level of disability as measured by EDSS Score” value is on record as “at least as effective as 20 mg s.c. GA daily administration”; the “reducing the level of disability as measured by EuroQoL (EQ5D) questionnaire” value is “at least as effective as 20 mg s.c. GA daily administration”; the “reducing the level of disability as measured by the work productivity and activities impairment-General Health (WPAI-GH) questionnaire” value is “at least as effective as 20 mg s.c. GA daily administration”; the “reducing the number of new T2 lesions at month 12” value is listed as “at least as effective as 20 mg s.c. GA daily administration”. For the same molecule, in test [3] (setting [4]), the “reducing the number of new hypointense lesions on enhanced T1 scans at month 12 as compared to the baseline scan” value is recorded as “at least as effective as 20 mg s.c. GA daily administration”, the “reducing the progression of MRI-monitored disease activity in the patient” value was “at least as effective as 20 mg s.c. GA daily administration”, the “reducing the subject population annualized relapse rate” value is listed as “at least as effective as 20 mg s.c. GA daily administration” and the “reducing the total number of confirmed relapses during the placebo-controlled phase requiring hospitalization and/or IV steroids” value was “at least as effective as 20 mg s.c. GA daily administration”. The “reducing proportion (%) of subjects with confirmed EDSS progression during the placebo-controlled phase” value in test [3] (40 mg s.c. three times weekly compared with 20 mg s.c. GA daily administration, progression of at least 1 EDSS point sustained for at least 3 months) was “at least as effective as 20 mg s.c. GA daily administration”. Moreover, in test [3] (setting [5]), the “change from baseline to month (end of placebo-controlled phase) in EDSS Score” value is on record as “significantly reduces”; the “cumulative number of enhancing lesions on T1-weighted images taken at months 6 and 12” value is recorded as “significantly reduces”; the “level of disability as measured by EDSS Score” value is recorded as “significantly reduces”; the “level of disability as measured by EuroQoL (EQ5D) questionnaire” value is on record as “significantly reduces”. Also, in test [3] (setting [5]), the “level of disability as measured by the work productivity and activities impairment-General Health (WPAI-GH) questionnaire” value was “significantly reduces”; the “number of new T2 lesions at month 12” value was “significantly reduces”; the “number of new hypointense lesions on enhanced T1 scans at month 12 as compared to the baseline scan” value is given as “significantly reduces”; the “progression of MRI-monitored disease activity in the patient” value is listed as “significantly reduces”. Moreover, in test [3] (setting [5]), the “proportion of relapse-free subjects during the placebo-controlled phase” value was “significantly increases”, the “time to the first confirmed relapse during the placebo-controlled phase” value is recorded as “significantly increases” and the “total number of confirmed relapses during the placebo-controlled phase requiring hospitalization and/or IV steroids” value is listed as “significantly reduces”. The “proportion (%) of subjects with confirmed EDSS progression during the placebo-controlled phase” value in test [3] (40 mg s.c. three times weekly vs placebo, progression of at least 1 EDSS point sustained for at least 3 months) is “significantly reduces”.

B1: IFNβ-1b: immunomodulator (IFNβ 1b) whose efficacy in MS was shown in controlled clinical trials (protein, UniProt P01574 22-187, looked up, variant C17S)
Interferon beta: MSYNLLGFLQRSSNFQSQKLLWQLNGRLEYCLKDRMNFDIPEEIKQLQQFQKEDAALTIYEMLQNIFAIFRQDSSSTGWNETIVENLLANVYHQINHLKTVLEEKLEKEDFTRGKLMSSLHLKRYYGRILHYLKAKEYSHCAWTIVRVEILRNFYFINRLTGYLRN
B1: the “efficacy in the treatment of MS” value with MS is on record as “demonstrated the efficacy”.
